≈ marks a conversion by molar mass, not a printed value.
Assays:
Format in all cases: functional
Conditions in all cases: for LC50: Diaphorina citri, 48 h
Diaphorina citri [1] = test: Insecticidal activity against blue/green Diaphorina citri in citrus leaf assessed as mortality after 48 hr by leaf-dip petridish bioassay method
Diaphorina citri [2] = test: Insecticidal activity against orange/yellow Diaphorina citri in citrus leaf assessed as mortality after 48 hr by leaf-dip petridish bioassay method
Diaphorina citri [3] = test: Insecticidal activity against gray/brown Diaphorina citri in citrus leaf assessed as mortality after 48 hr by leaf-dip petridish bioassay method

Compound	LC95 (Diaphorina citri [1])	LC50 (Diaphorina citri [1])	LC95 (Diaphorina citri [2])	LC50 (Diaphorina citri [2])	LC95 (Diaphorina citri [3])	LC50 (Diaphorina citri [3])
CCOP(=S)(OCC)Oc1nc(Cl)c(Cl)cc1Cl [CHLORPYRIFOS]	12.12 µg/mL (≈ 34.6 µM)	3.93 µg/mL (≈ 11.2 µM)	2.67 µg/mL (≈ 7.62 µM)	0.92 µg/mL (≈ 2.62 µM)	11.62 µg/mL (≈ 33.1 µM)	3.62 µg/mL (≈ 10.3 µM)
CC1(C)C(C(=O)OC(C#N)c2cccc(Oc3ccccc3)c2)C1(C)C (centres undefined) [FENPROPATHRIN]	29.21 µg/mL (≈ 83.6 µM)	0.85 µg/mL (≈ 2.43 µM)				
O=[N+]([O-])/N=C1\NCCN1Cc1ccc(Cl)nc1 [IMIDACLOPRID]	1.84 µg/mL (≈ 7.2 µM)	0.4 µg/mL (≈ 1.56 µM)	1.09 µg/mL (≈ 4.26 µM)	0.18 µg/mL (≈ 0.704 µM)	1.59 µg/mL (≈ 6.22 µM)	0.41 µg/mL (≈ 1.6 µM)

Source: ChEMBL document CHEMBL3046453, “Abdominal color of the Asian citrus psyllid, Diaphorina citri, is associated with susceptibility to various insecticides” (2013)
